Measurements taken from paper PMC8308870 (2021).

Columns and labels:
[1] = test system: h-Telo (FRET) (DNA, G4) GGGTTAGGGTTAGGGTTAGGG; experiment: FRET melting; conditions: 60 mM K+, pH 7.4, 0.2 µM DNA
[2] = test system: h-Telo (CD) (DNA, G4) GGGTTAGGGTTAGGGTTAGGG; experiment: CD titration; conditions: 10 mM K+, 90 mM LiCl, 20 mM lithium cacodylate, 20 °C, 10 µM DNA, 0–25 eq
[3] = test system: k-RAS (CD) (DNA, G4) AGGGCGGTGTGGGAAGAGGGA; experiment: CD titration; conditions: 50 mM K+, 50 mM LiCl; 20 mM lithium cacodylate, 20 °C; 10 µM DNA, 0–25 eq; ellipticity decrease, 295 nm band
[4] = test system: h-Telo (CD) (DNA, G4) GGGTTAGGGTTAGGGTTAGGG; experiment: CD melting (290 nm); conditions: 10 mM K+, 90 mM LiCl; 20 mM lithium cacodylate, pH 7.2; 10 µM DNA; compound 5 eq
[5] = test system: Pu27mut (DNA, G4) TGGGGAGGGTGGAAAGGGTGGGGAAGG; experiment: CD titration; conditions: 10 mM K+, 2 mM Mg2+, 10 mM (NH4)2SO4; ThermoPol buffer (20 mM Tris-HCl, 0.1% Triton X-100), pH 8.8; parallel G4 induced
[6] = test system: T-Loop (t-Loop) (DNA, hairpin) TATAGCTATATTTTTTTATAGCTATA; experiment: FRET melting; conditions: 60 mM K+, potassium cacodylate, pH 7.4, 0.2 µM DNA
[7] = test system: k-RAS (FRET) (DNA, G4) AGGGCGGTGTGGGAAGAGGGA; experiment: FRET melting; conditions: 60 mM K+, pH 7.4, 0.2 µM DNA
[8] = test system: c-MYC (Pu27) (DNA, G4) TGGGGAGGGTGGGGAGGGTGGGGAAGG; experiment: CD melting (265 nm); conditions: 100 mM LiCl, no K+ listed; 20 mM lithium cacodylate, pH 7.2; 10 µM DNA; compound 5 eq
[9] = test system: k-RAS (CD) (DNA, G4) AGGGCGGTGTGGGAAGAGGGA; experiment: CD melting (265 nm); conditions: 50 mM K+, 50 mM LiCl; 20 mM lithium cacodylate, pH 7.2; 10 µM DNA; compound 5 eq
[10] = cacodylate, compound 5 µM (25 eq)

SMILES | binding [3] | ΔTm [4] [°C] | ΔTm [8] [°C] | ΔTm [9] [°C] | binding ([2]; topology maintained) | other results
C[n+]1cc(NC(=O)c2cccc(C(=O)Nc3c[n+](C)cc4ccccc34)n2)c2ccccc2c1 | yes | 14.9 ± 0.2 |  |  |  | ΔTm ([1]; potassium cacodylate, compound 25 eq (5 µM)): 22.7 ± 0.2 °C; binding ([2]; hybrid to antiparallel switch): yes
C[n+]1ccc(NC(=O)c2cccc(C(=O)Nc3cc[n+](C)c4ccccc34)n2)c2ccccc21 | yes |  |  |  | yes | 
O=C(Nc1ccc2ccccc2n1)c1cccc(C(=O)Nc2ccc3ccccc3n2)n1 |  |  |  |  |  | ΔTm [1, 10]: < 0.5 °C
O=C(Nc1cncc2ccccc12)c1cccc(C(=O)Nc2cncc3ccccc23)n1 |  |  |  |  |  | ΔTm [7, 10]: < 0.5 °C

More lines, main results first:

binding [3] | ΔTm [4] [°C] | ΔTm [8] [°C] | ΔTm [9] [°C] | binding ([2]; topology maintained) | SMILES | other results
 |  | > 40 | > 40 |  | C[n+]1cc(NC(=O)c2cccc(C(=O)Nc3cc4ccccc4[n+](C)c3)n2)cc2ccccc21 | binding [5]: yes; ΔTm ([6]; compound 5 eq (1 µM)): 6.5 ± 0.1 °C; ΔTm ([7]; potassium cacodylate, compound 5 eq (1 µM)): 35.6 ± 0.3 °C; binding ([2]; hybrid to parallel switch): yes
yes | 4.4 ± 0.2 | 5.3 ± 0.1 | 12.2 ± 0.2 | yes | C[n+]1ccc2c(NC(=O)c3cccc(C(=O)Nc4cccc5c[n+](C)ccc45)n3)cccc2c1 | ΔTm ([6]; compound 25 eq (5 µM)): 1.8 ± 0.2 °C
